Source: patent US7494996B2 (priority 2000, dated 2009)

Experiments:
Sphaerotheca fuliginea = assay: Cucumber Powdery Mildew (CPM) protectant test in the greenhouse; assay type: in vivo; conditions: 100 is total disease control, 0 is no disease control; for Cucumber Powdery Mildew (CPM) protectant fungicide data, percent control: 300 g/ha; for pest or weed control at 300 g/ha: Podosphaera fuliginea, topical, 168 h, read-out: Cucumber Powdery Mildew (CPM) protectant fungicide data, percent control
Summary of the method: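 Compounds in acetone-methanol-water (1:1:2) sprayed onto cucumber cv. "Bush Champion" (cotyledons plus one true leaf, 13 days old), dried 4 h. Inoculated 1 day later with 2×10^5 spores/ml; disease control (%) rated after 7 days in greenhouse.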

Pyricularia oryzae = assay: whole plant or invertebrate; assay type: in vivo; conditions: 100 is total disease control, 0 is no disease control; for Rice Blast (RB) protectant fungicide data, percent control: 300 g/ha, greenhouse; for pest or weed control at 300 g/ha: Pyricularia oryzae, topical, 144 h, read-out: Rice Blast (RB) protectant fungicide data, percent control, protectant, 300 g/ha, greenhouse

Structure (SMILES)	Cucumber Powdery Mildew (CPM) protectant fungicide data, percent control (Sphaerotheca fuliginea) [percent control]	Rice Blast (RB) protectant fungicide data, percent control (Pyricularia oryzae) [percent control]	pest or weed control at 300 g/ha (Sphaerotheca fuliginea) [%]	pest or weed control at 300 g/ha (Pyricularia oryzae) [%]
COc1c(Br)cc(C2=NN(CC(F)(F)F)C(=O)CN2)cc1Br [Compound 158]	0	85	–	–
CCCCN1N=C(c2ccc(C)c(Cl)c2)NCC1=O [Compound 294]	80	100	–	–
CCCCCCCCN1N=C(c2ccc(Cl)cc2)NCC1=O [Compound 56]	80	80	–	–
O=C1CNC(c2ccc(Cl)c(Cl)c2)=NN1 [Compound 174]	0	75	–	–
O=C1CNC(c2ccccc2F)=NN1CC(F)(F)F [Compound 96]	75	50	–	–
Cc1cccc(N2N=C(c3ccc(OCC(F)(F)F)nc3)NCC2=O)c1 [Compound 188]	0	80	–	–
CC(=O)N1CC(=O)N(CC(F)(F)F)N=C1c1cc(Cl)cc(Cl)c1 [Compound 72]	50	75	–	–
O=C1CNC(c2ccc(F)c(Br)c2)=NN1CC1CC1 [Compound 220]	80	100	–	–
C=CCOC(=O)N1CC(=O)N(CC(F)(F)F)N=C1c1cc(Cl)cc(Cl)c1 [Compound 10, 1-(2,2,2-trifluoroethyl)-3-(3,5-dichlorophenyl)-4-allyloxycarbonyl-4,5-dihydro-1,2,4-triazin-6-one]	–	–	0	90
C=CCOC(=O)N1CC(=O)N(CCCC)N=C1c1cc(Cl)cc(Cl)c1 [Compound 132]	50	85	–	–
CSc1ccc(C2=NN(CC(F)(F)F)C(=O)CN2)cc1 [Compound 147]	0	98	–	–
CCCCN1Nc2c3c(Cl)c(Cl)ccc3cn2CC1=O [Compound 23, 9,10-Dichloro-2-butyl-1,2,4-triazino[3,4-a]isoindol-3(4H)-one]	–	–	50	0
CCC#CCN1N=C(c2ccc(Cl)c(Cl)c2)NCC1=O [Compound 210]	25	100	–	–
CCCCN1N=C(C)NC(c2ccccc2)C1=O (stereo not drawn) [Compound 92]	50	0	–	–
CCCCN1N=C(c2ccc(OC)cc2)NCC1=O [Compound 36]	50	99	–	–
O=c1cnc(-c2ccccc2Cl)nn1CC(F)(F)F [Compound 267]	85	80	–	–
O=C1CNC(c2cccc([N+](=O)[O-])c2)=NN1CC(F)(F)F [Compound 167]	0	85	–	–
CCCN1N=C(c2cc(Cl)cc(Cl)c2)NCC1=O [Compound 107]	95	99	–	–
O=c1cnc(-c2ccc(Cl)cc2)nn1-c1ccccn1 [Compound 261]	0	50	–	–
Cc1cccc(-n2nc(-c3cccc(Cl)c3)ncc2=O)c1 [Compound 278]	0	85	–	–
CC(=O)CC1NC(c2ccc(Cl)cc2)=NN(CC(F)(F)F)C1=O (stereo not drawn) [Compound 20, 1-(2,2,2-Trifluorethyl)-3-(4-chlorophenyl)-5-(2-propanone)-4,5-dihydro-1,2,4-triazin-6-one]	75	50	–	–
C#CCN1N=C(c2ccc(Cl)c(Cl)c2)NCC1=O [Compound 215]	0	85	–	–
CCCCN1N=C(c2ccc(Cl)c(Cl)c2)N(C(=S)SC)CC1=O [Compound 12, 1-n-butyl-3-(3,4-dichlorophenyl)-4-methylthiothiocarbonyl-4,5-dihydro-1,2,4-triazin-6-one]	–	–	0	95

Structure (SMILES)	Cucumber Powdery Mildew (CPM) protectant fungicide data, percent control (Sphaerotheca fuliginea) [percent control]	Rice Blast (RB) protectant fungicide data, percent control (Pyricularia oryzae) [percent control]	pest or weed control at 300 g/ha (Sphaerotheca fuliginea) [%]	pest or weed control at 300 g/ha (Pyricularia oryzae) [%]
O=C1CNC(c2cnc3ccccc3c2)=NN1CC(F)(F)F [Compound 141]	50	85	–	–
CCCCN1N=C(c2cc(Cl)cc(Cl)c2)N(C(=O)OCCl)CC1=O [Compound 15, 1-(n-butyl)-3-(3,5-dichlorophenyl)-4-(chloromethyloxycarbonyl)-4,5-dihydro-1,2,4-triazin-6-one]	–	–	50	75
O=C1CNC(c2ccc(Cl)cc2)=NN1c1ccccc1 [Compound 28]	85	85	–	–
CCCCN1N=C(C)NC(c2ccc(OC)cc2)C1=O (stereo not drawn) [Compound 79]	50	75	–	–
O=C1CNC(c2c(Cl)cncc2Cl)=NN1CC(F)(F)F [Compound 159]	0	85	–	–
O=c1cnc(-c2ccccc2)n[nH]1 [Compound 243]	0	75	–	–
O=C1CNC(c2ccc(Cl)c(Cl)c2)=NN1c1cccc(Cl)c1 [Compound 196]	0	99	–	–
C#CCN1N=C(c2cccc(F)c2)NCC1=O [Compound 225]	0	80	–	–
CCCN1N=C(c2cc(Cl)cc(Cl)c2)NCC1=O [Compound 164]	95	100	–	–
C#CCN1CC(=O)N(CCCC)N=C1c1ccc(Cl)c(Cl)c1 [Compound 168]	50	95	–	–
C[Si](C)(C)CN1N=C(c2ccc(Cl)cc2)NCC1=O [Compound 61]	50	85	–	–
CCCCN1N=C(c2c(Cl)cncc2Cl)NCC1=O [Compound 121]	0	80	–	–
COc1ccc(C2=NN(CC(F)(F)F)C(=O)C(OC)N2)cc1 (stereo not drawn) [Compound 39]	85	99	–	–
CCOC(=O)N1C(c2cc(Cl)cc(Cl)c2)=NN(CC(F)(F)F)C(=O)C1OC (stereo not drawn) [Compound 214]	85	50	–	–
CCCCn1nc(-c2ccc(F)c(Br)c2)ncc1=O [Compound 289]	50	100	–	–
CCCCN1C=C2c3ccccc3OC(=O)N2CC1=O [Compound 25, 3-n-Butyl-3H-9-oxa-3,10a-diaza-phenanthrene-2,10-dione]	–	–	0	75
CCCCN1N=C2C=CC(c3ccc(Cl)cc3)=NN2CC1=O [Compound 229]	–	–	50	0
CCCCN1N=C(C)NC(c2ccc(C)cc2)C1=O (stereo not drawn) [Compound 75]	85	0	–	–
O=C1CN(CC2CC2)C(c2cccc(Br)c2)=NN1CC1CC1 [Compound 224]	50	75	–	–
O=C1CNC(c2cc(Cl)nc(Cl)c2)=NN1Cc1ccccc1 [Compound 190]	0	80	–	–
Cc1cccc(N2N=C(c3ccc(-c4ccccc4)cc3)NCC2=O)c1 [Compound 186]	0	85	–	–
O=C1C(O)NC(c2ccccn2)=NN1CC(F)(F)F (stereo not drawn) [Compound 53]	0	75	–	–
